The source of these data is PubChem BioAssay (NCI).

“And” between values parts separate entries of the source, which are not always exact repeats. Equal values may be shown once.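 Values below derive from 48-hour exposures of cells grown in 96-well plates, with endpoints linearly interpolated between the two concentrations bracketing the appropriate inhibition level. GI50 is the concentration that inhibits growth by half. TGI denotes the concentration required for complete inhibition of growth.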

What all share (test): NCI tumour cell line growth inhibition, 48 h
Assay [1] has as its system ACHN renal.
Assay [2] relates to COLO 205 colon.
The subject of assay [3] is HL-60(TB) leukemia.
The subject of assay [4] is K-562 leukemia.
Assay [5] concerns MCF7 breast.
Assay [6] concerns NCI-H522 lung.
In assay [7] the test system is OVCAR-3 ovarian.
The subject of assay [8] is RPMI-8226 leukemia.
Assay [9] has as its system SK-MEL-5 melanoma.
The test system of assay [10] is SNB-75 CNS.
In assay [11] the test system is SW-620 colon.
The subject of assay [12] is T-47D breast.
The test system of assay [13] is TK-10 renal.
The test system of assay [14] is MDA-MB-231 breast.
Assay [15] relates to SK-OV-3 ovarian.

In the case of `O=c1[nH]nc(Cc2ccccc2)[nH]1`, the TGI in assay [1], in [2], in [3], in assay [4], in assay [5] and in [6] was above 100 µM in each case. Besides, the TGI in assay [7], in [8], in assay [9], in assay [10], in assay [11] and in assay [12] was above 100 µM in each case. Besides, the TGI in [13] is above 100 µM.

As to `Cc1ccc(-c2c3nc(c(-c4ccc(C)cc4)c4ccc([nH]4)c(-c4ccc(OCC5COC(C)(C)O5)cc4)c4nc(c(-c5ccc(C)cc5)c5ccc2[nH]5)C=C4)C=C3)cc1` (stereo not drawn), the TGI in assay [1], in assay [2], in assay [5], in assay [14], in assay [6] and in assay [7] was above 31.6 µM in each case. Further, the TGI was above 100 µM in assay [8]; above 31.6 µM in assay [9]; above 31.6 µM in [10]; above 31.6 µM in assay [11]; above 31.6 µM in [12]; above 31.6 µM in [13].

Turning to `Cc1ccc(N=Nc2c(C)c(C#N)c(=S)n(C3OC(CO)C(O)C(O)C3O)c2C)cc1` (stereo not drawn), the TGI in assay [1] is above 100 µM; in [2], above 100 µM; in assay [3], above 100 µM; in [4], above 100 µM; in assay [5], above 100 µM; in assay [14] it was 60 µM. Besides, the TGI in assay [7] was 74.4 µM; in assay [8] it was above 100 µM; in assay [9], 35 µM; in assay [15], above 100 µM; in [10], 73.2 µM; in assay [11], 38.8 µM. Also, the TGI in assay [12] is 46 µM; in assay [13], above 100 µM.

As for `NNc1nncc2n[nH]nc12`, the TGI in assay [1], in assay [2], in assay [3], in assay [4], in [5] and in assay [14] was above 100 µM each time. Also, the TGI in assay [7] was above 100 µM; in assay [8] it was above 100 µM; in assay [10], 85.5 µM; in assay [11], above 100 µM; in assay [12] it was above 100 µM; in [13], above 100 µM.

As for `CC1=CC(=O)N(n2c(Cc3ccccc3)n[nH]c2=O)C1=O`, the TGI in assay [1], in assay [2], in assay [4], in assay [5], in assay [14] and in assay [6] was above 100 µM in each case. The TGI in [7], in assay [8], in assay [9], in assay [15], in assay [11] and in assay [12] was above 100 µM throughout. In [13], this compound came in with a TGI above 100 µM.

With `CCc1c(C)c(C#N)c(=S)n(C2OC(COC(C)=O)C(OC(C)=O)C(OC(C)=O)C2OC(C)=O)c1C` (stereo not drawn), the GI50 was > 100 µM and 18.9 µM in assay [1]; > 100 µM and 13 µM in assay [14]; 63.4 µM and 20.8 µM in assay [15]; 92.8 µM and 26.3 µM in [13]. The TGI in assay [1] was above 100 µM; in [2], above 100 µM; in assay [3], above 100 µM; in [4], above 100 µM; in assay [5], above 100 µM; in assay [14] it was > 100 µM and 73.9 µM. For the same compound, the TGI is above 100 µM in assay [6]; above 100 µM in assay [7]; above 100 µM in assay [9]; > 100 µM and 84.6 µM in [15]; above 100 µM in assay [11]; above 100 µM in [12]. In addition, the TGI in [13] was > 100 µM and 69.4 µM.

`O=C1C=CC=C/C1=C1\N=C(c2ccccc2OCC(=O)c2ccc(Br)cc2)SS1`: the TGI in assay [1], in [2], in [3], in [4], in assay [5] and in [7] was above 100 µM in each case. The TGI in assay [8] is above 100 µM; in assay [9], above 100 µM; in assay [15], above 100 µM; in assay [10], 44.5 µM; in assay [11], above 100 µM; in assay [12], above 100 µM. Further, the TGI in assay [13] was above 100 µM.

`COC(=O)C1=C(C(=O)OC)c2cc(OC)ccc2C(C(=S)N(C)C)S1` (stereo not drawn): the TGI in assay [1], in [2], in [4], in assay [5], in [14] and in assay [7] was above 100 µM in each case. In addition, the TGI in assay [8], in assay [15], in assay [10], in assay [11], in [12] and in assay [13] was above 100 µM in each case.

Turning to `Cc1cc(C)n(C2OC(CO)C(O)C(O)C2O)c(=S)c1C#N` (stereo not drawn), the TGI in [1], in assay [2], in assay [3], in assay [5], in assay [14] and in [6] was above 100 µM in each case. Further, the TGI in assay [7], in [8], in assay [9], in assay [10], in assay [11] and in assay [12] was above 100 µM each time. Besides, the TGI in [13] is above 100 µM.

Consider `COC(=O)C(COC(C)=O)NC(=O)/C=C/c1ccc(O)c(OC(C)=O)c1` (stereo not drawn), for which the TGI in assay [1] is above 100 µM; in [2] it was above 100 µM; in [4] it was above 100 µM; in assay [5], above 100 µM; in assay [14] it was above 100 µM; in [6], 40.4 µM. For the same compound, the TGI in assay [7], in [8], in assay [9], in assay [15], in [10] and in assay [11] was above 100 µM each time. Besides, the TGI in [12] and in [13] was above 100 µM throughout.
